Several values for one entry are separate records, joined by “and”; a condition that tells them apart may be missing. Identical values can stand only once. Counter-ions that a name gives are not always drawn.
Experiments:
clinical = conditions: for Vd: 1.5 mg m-2, volume of distribution at steady state (Vd,ss)
Text: British Journal of Cancer (1996) 73, 1268-1271 ff* (C) 1996 Stockton Press All rights reserved 0007-0920/96 $12.00 Bioavailability and pharmacokinetics of oral topotecan: a new topoisomerase I inhibitor JHM Schellens', GJ Creemers', JH Beijnen2, H Rosing2, M de Boer-Dennert', M McDonald3, B Davies4 and J Verweij' 'Department of Medical Oncology, Rotterdam Cancer Institute, 3075 EA Rotterdam, The Netherlands; 2Slotervaart Hospital, Amsterdam, The Netherlands; 3SmithKline & Beecham, UK; 4SmithKline & Beecham, USA. […] The oral dose of 1.5 mg m 2 was administered as a drinking solution of 200 ml on day 1. The i.v. dose of 1.5 mg m-2 was administered as a 30 min continuous infusion on day 2. The bioavailability was calculated as the ratio of the oral to i.v. area under the curve (AUC) calculated up to the last measured time point. […] Keywords: topotecan; bioavailability; topoisomerase I inhibitor Topotecan (SKF 104864) [(S)-9-dimethylaminomethyl-10- hydroxycamptothecin hydrochloride] is a semisynthetic water-soluble analogue of camptothecin (Hsiang and Liu, 1988). Like camptothecin, topotecan is a specific inhibitor of topoisomerase I (Hsiang and Liu, 1988). Topotecan incorporates a stable basic side-chain at the 9-position of the A-ring, which provides water solubility at acid pH. Topotecan is converted to its lactone ring-opened hydrolysis product (hydroxy acid), which reversible pathway is strongly pH dependent. The biological activity of the hydroxy acid has not been fully elucidated (Kingsbury et al., 1991). […] In the present study the bioavailability and pharmacoki- netics of oral topotecan are explored in patients with solid tumours with the aim of providing a basis for further development of clinical studies using chronic oral topotecan. […] The performance status had to be < 2 on the WHO scale and life expectancy >3 months. The minimum age was 18 and maximum age 75 years. The haemoglobulin had to be >6.0 mmol 1 -1 (9 g dl-'), WBC? 3500 ul -', granulocytes , 1000 l-d and platelets >100 000 jil-'. The serum creatinine had to be < 140 imol 1-1 (1.6 mg dl-'), the serum bilirubin <26 µmol 1` (1.5 mg dl-') and alkaline phospha- tase and transaminases <2 times the upper normal limit if liver metastases were absent or -5 times the upper normal limit if liver metastases were present. Topotecan was administered orally and intravenously at a dose of 1.5 mg m-2. Topotecan as supplied for intravenous infusion was diluted for oral dosage. […] The dose was placed in a beaker containing 100 ml of 5% dextrose injection solution. On day 1, patients were asked to drink the entire contents. Subsequently, an additional 100 ml of 5% dextrose injection solution was added to the beaker and taken by the patient. On day 2 topotecan was administered at the same dose as a continuous 30 min intravenous infusion.

[1] = Acute tolerability of oral drinking solution and i.v. infusion of topotecan in patients; format: in vivo, human
Text: British Journal of Cancer (1996) 73, 1268-1271 ff* (C) 1996 Stockton Press All rights reserved 0007-0920/96 $12.00 Bioavailability and pharmacokinetics of oral topotecan: a new topoisomerase I inhibitor JHM Schellens', GJ Creemers', JH Beijnen2, H Rosing2, M de Boer-Dennert', M McDonald3, B Davies4 and J Verweij' 'Department of Medical Oncology, Rotterdam Cancer Institute, 3075 EA Rotterdam, The Netherlands; 2Slotervaart Hospital, Amsterdam, The Netherlands; 3SmithKline & Beecham, UK; 4SmithKline & Beecham, USA. […] The oral dose of 1.5 mg m 2 was administered as a drinking solution of 200 ml on day 1. The i.v. dose of 1.5 mg m-2 was administered as a 30 min continuous infusion on day 2. The bioavailability was calculated as the ratio of the oral to i.v. area under the curve (AUC) calculated up to the last measured time point. […] Keywords: topotecan; bioavailability; topoisomerase I inhibitor Topotecan (SKF 104864) [(S)-9-dimethylaminomethyl-10- hydroxycamptothecin hydrochloride] is a semisynthetic water-soluble analogue of camptothecin (Hsiang and Liu, 1988). Like camptothecin, topotecan is a specific inhibitor of topoisomerase I (Hsiang and Liu, 1988). Topotecan incorporates a stable basic side-chain at the 9-position of the A-ring, which provides water solubility at acid pH. […]

[2] = design: method as in unpublished data; conditions: mean (s.d. 16.3), ref unpublished data; cited from earlier work
[3] = Table I, patients 1-12 in order, oral 1.5 mg m-2

CC[C@@](O)(C(=O)O)c1cc2n(c(=O)c1CO)Cc1cc3c(CN(C)C)c(O)ccc3nc1-2 [hydroxy acid]
plasma concentration-time curves of the hydroxy acid compared with topotecan (clinical; human, in vivo): higher than those of topotecan
ratio of the AUC(t) of the hydroxy acid after oral and i.v. administration (clinical; human, in vivo): 0.38 ± 0.12
Cmax of the hydroxy acid (clinical; human, in vivo, iv): 18.97 ± 2.44 ng/mL
terminal t1/2 of the hydroxy acid (clinical; human, in vivo, iv): 3.22 ± 0.73 h
AUC(t) of hydroxy acid, i.v. (clinical; human, in vivo, iv, 1.5 mg): 73.25 ng/h/mL
Cmax of the hydroxy acid (clinical; human, in vivo, po): 7.50 ± 2.57 ng/mL
Cmax of the hydroxy acid, range (clinical; human, in vivo, po): 4.66 + 12.32 ng ml-1
plasma concentration on day 2, before administration of the second dose (clinical; human, in vivo, po): undetectable
terminal t1/2 of the hydroxy acid (clinical; human, in vivo, po): 2.82 ± 0.85 h
AUC(t) of hydroxy acid, oral (clinical; human, in vivo, po, 1.5 mg): 31.41 ng/h/mL

CC[C@@]1(O)C(=O)OCc2c1cc1n(c2=O)Cc2cc3c(CN(C)C)c(O)ccc3nc2-1 [topotecan, (S)-9-dimethylaminomethyl-10-hydroxycamptothecin hydrochloride]
Cmax, i.v. (individual patients) (clinical; Table I, patients 1-12 in order, i.v. 1.5 mg m-2): 41.08 ng/mL and 35.92 ng/mL and 43.86 ng/mL and 33.40 ng/mL and 47.18 ng/mL and 40.35 ng/mL and 41.41 ng/mL and 41.21 ng/mL and 42.11 ng/mL and 25.35 ng/mL and 19.57 ng/mL
Cmax, oral (individual patients) (clinical; [3]): 5.93 ng/mL and 5.16 ng/mL and 5.45 ng/mL and 5.71 ng/mL and 7.14 ng/mL and 4.71 ng/mL and 5.08 ng/mL and 6.48 ng/mL and 6.67 ng/mL and 5.38 ng/mL and 6.93 ng/mL
Tmax, oral (individual patients) (clinical; [3]): 0.5 h (3×) and 1.03 h (2×) and 0.33 h and 1.13 h and 0.52 h and 0.55 h and 2.5 h and 1.5 h and 1.0 h
F (individual patients) (clinical; Table I, patients 1-12 in order, ratio AUC(t) oral/i.v.): 21% and 30% (2×) and 25% and 38% and 23% (2×) and 22% and 45% and 34% and 35% and 36%
plasma concentration on day 2, before administration of the second dose (clinical; day after oral dose 1.5 mg m-2, LLQ 0.1 ng ml-1): undetectable
Cmax (clinical; human, in vivo, iv, 1.5 mg, i.v. (individual patients)): 41.8 ng/mL
clearance (clinical; human, plasma, iv, 1.5 mg): 535 to 1070 mL/min
clearance (clinical; human, plasma, iv, 1.5 mg m-2): 824 ± 154 mL/min
half-life (clinical; human, plasma, iv, 1.5 mg m-2, half-life for the initial decline of the plasma concentration-time curve (t1/2 alpha), mean ± s.d., ten patients fitted with a biexponential model): 0.186 h
half-life (clinical; human, plasma, iv, 1.5 mg m-2, t1/2 beta, after i.v., the patient with the highest bioavailability of 45%): 1.8 h
half-life (clinical; human, plasma, iv, 1.5 mg m-2, t1/2 beta, mean ± s.d., n=12): 2.4 h
half-life (clinical; human, plasma, iv, 1.5 mg m-2, t1/2 beta, range, n=12): 1.72 to 2.93 h
Vd (clinical; human, plasma, iv, mean ± s.d., n=12): 128 L
Vd (clinical; human, plasma, iv, range, n=12): 86 to 231 L
Cmax (clinical; human, plasma, iv, 1.5 mg, mean of 12 patients, i.v. 1.5 mg m-2): 37.8 ng/mL
Tmax (clinical; human, plasma, po, 1.5 mg m-2, Tmax, range of the other 11 patients, without the patient with Tmax 2.5 h): 0.33 to 1.5 h
half-life (clinical; human, plasma, po, 1.5 mg m-2, t1/2 beta, after oral administration, the patient with the highest bioavailability of 45%): 3.2 h
half-life (clinical; human, plasma, po, 1.5 mg m-2, t1/2 beta, mean, n=10): 2.43 h
half-life (clinical; human, plasma, po, 1.5 mg m-2, t1/2 beta, range, n=10): 1.02 to 3.2 h
Cmax (clinical; human, plasma, po, 1.5 mg, mean of 12 patients, oral 1.5 mg m-2): 5.88 ng/mL
Cmax (clinical; human, plasma, po, 1.5 mg, oral (individual patients), Table I, patients 1-12 in order, oral 1.5 mg m-2): 5.95 ng/mL
Tmax (clinical; human, plasma, po, 1.5 mg, time to maximum plasma concentration (Tmax), median, oral 1.5 mg m-2, 12 patients): 0.78 h
Tmax (clinical; human, plasma, po, 1.5 mg, time to maximum plasma concentration (Tmax), range, oral 1.5 mg m-2, 12 patients): 0.33 to 2.5 h
AUC(t), range (clinical; i.v. 1.5 mg m-2): 32.50 to 73.68 ng/h/mL
AUCoo, range (clinical; i.v. 1.5 mg m-2): 43.70 to 81.08 ng/h/mL
bioavailability (ratio of oral to i.v. AUC(t)) (clinical; mean (s.d. 7.7), oral drinking solution 1.5 mg m-2 day 1 vs 30 min i.v. infusion 1.5 mg m-2 day 2, 12 patients): 30%
bioavailability if curves extrapolated to infinity (AUCoo) (clinical; mean (s.d. 11.5), oral vs i.v. 1.5 mg m-2): 32%
AUC(t) (clinical; mean ± s.d., i.v. 1.5 mg m-2): 49.87 ± 10.87 ng/h/mL
total plasma clearance (Cl) (clinical; mean ± s.d., i.v. 1.5 mg m-2 30 min infusion, n=12): 824+ 154 ml min-1
AUCoo (clinical; mean ± s.d., i.v. 1.5 mg m-2, extrapolated to infinity): 61.02 ± 10.57 ng/h/mL
AUC(t) (clinical; mean ± s.d., oral 1.5 mg m-2, up to latest measured time point): 15.18 ± 5.51 ng/h/mL
AUC(t), range (clinical; oral 1.5 mg m-2): 9.38 to 25.37 ng/h/mL
bioavailability (ratio of oral to i.v. AUC(t)), range (clinical; range over 12 patients, oral vs i.v. 1.5 mg m-2): 21-45%
acute side-effects ([1]; i.v. and oral 1.5 mg m-2, 12 patients): Neither i.v. nor oral administration was associated with any significant acute side-effect
tolerability of the oral drinking solution ([1]; oral 1.5 mg m-2 in 200 ml, 12 patients): well tolerated
bioavailability after oral administration in dogs [2]: 35.7%
